We go through one molecule from patent US20210244028A1, “TREATMENT FOR REMOVING ECTOPARASITES FROM FISH” (priority 2018, published 2021).

Where “and” joins values, the source holds several entries; their conditions need not be identical. Equal values may be shown once. Read-outs that look alike come from different tables or passages of the source.

Experiment [1] has as its system Lepeophtheirus salmonis. The experiment can be described thus: Immersion treatment of sea lice-challenged salmon in tanks, 1 or 6 weeks post challenge (Example 1). The class given is in vivo. The source says:
Eight flow-through treatment tanks each containing 15 fish were set up. The fish were Salmon (Salmo salar) having an average weight of approximately 270 g and of mixed sex. Egg strings removed from ovigerous female Lepeophtheirus salmonis were collected and cultured until infective copepodids were produced. Eight bottles containing approximately 330-350 copepodids were each randomly allocated to a treatment tank (to provide an average of 22 lice per fish).
In preparation for the challenge, water flows in the tanks were stopped and light levels reduced. The lice were then added to each tank and the tanks maintained in total darkness for 6 hours after which light levels were raised and the water flow resumed.
The fish were challenged with sea lice for either one week or for six weeks.
One week after the sea lice challenge, fish in three of the tanks were treated with either 10 ppm w/v, 30 ppm w/v or 50 ppm w/v imidacloprid. One of the tanks was treated with 0.03% DMSO and another tank sham treated with sea water as controls.
For each treatment tank, the appropriate amount of imidacloprid (see Table 1) was dissolved in 100 ml of DMSO and mixed with approximately 900 ml of sea water from the experimental tank to obtain a treatment solution. The water flow on the experimental tanks was disabled and the treatment solution was then added.
Fish were exposed for 60 minutes in static water with full aeration and observed during the exposure period. At the end of the exposure period the water was rapidly drained to approximately ⅓ volume, before the flows were resumed in the tanks.
Six weeks after the fish were challenged with sea lice, the fish in the three remaining treatment tanks were treated with either 10 ppm w/v, 30 ppm w/v or 50 ppm w/v imidacloprid. The treatment was carried out in the same way as for the treatment tanks one week post challenge (see 1.2.1).
Eight weeks after the fish were challenged with sea lice, the study was terminated. Fish were over anaesthetised in MS222 (tricaine methanesulfonate) and pithed using an Iki Jime tool.
The length and weight of each fish and external symptoms were recorded. All lice were removed from each fish and note made of sex and stage of development. The lice were stored in ethanol and sex and stage confirmed using stereo microscope.
The data is expressed as prevalence and abundance. Prevalence is defined as the number of hosts infected with one of more individuals of a parasite species divided by the number of hosts examined (including infected and uninfected hosts) and expressed as a percentage.

The subject of experiment [2] is Lepeophtheirus salmonis. Conditions: 20 ppm (nitenpyram 19 ppm); for percentage of sea lice that dropped from treated fish at the end of the treatment period: culled fish. The procedure: The fish were acclimatised until normal feeding behaviour resumed, up to a maximum of 10 days, prior to challenge. The fish were housed in 750 litre tanks at a stocking density of no greater than 35 kg/m3. Tanks were provided with a continuous supply of seawater at a flow rate greater than 5 L/min at a temperature of 4.8-10.4° C. The photoperiod was set at 12 hours light: 12 hours dark.
The fish were challenged in a static bath with copepodid instar of Lepeophtheirus salmonis with the appearance of egg strings freshly removed from adult female lice at a target titre of 1,250-1,700 copepodids per tank
Egg strings were harvested from gravid sea lice and incubated in upwelling chambers until nauplii eclosion. Nauplii were allowed to moult through to the copepodid instar (5 days at approx. 10° C.) and then the tank water was filtered through a 100 μm mesh before re-suspending the copepodids in 225 mL of sea water. A 25 mL sample was removed which was then split into 1-2 mL samples in a 24-well plate and the nauplii/copepodids were counted under a stereo microscope. When abundance was sufficient and a minimum of 80% were copepodids the fish were challenged for 8 hours under static flow in the dark.
Fish were randomly selected from tanks, lightly sedated in a 90 ppm MS222 solution sufficient only to induce loss of equilibrium before being sacrificed by a non-recoverable blow to the head. Between 4 and 33 fish were required per treatment.
Culled fish were then suspended in treatment tanks. Fish were suspended in the tank horizontally from cable ties (one through the opercular cavity, one around the peduncle) and wire attached to a wooden rod). One 20 L tank of test item at 20 ppm was used per day. Lice on culled fish were exposed for either 5, 10, 15, 30 or 60 minutes (negative control was only exposed for 60 minutes as this would cover the longest exposure period to be tested). The order within treatment was randomised.
Lice were monitored continuously for the duration of the exposure and behavioural observations noted, including detachment of lice from fish. At the end of exposure lice were either removed from the tank or fish, placed into small vented plastic screw-top containers (125 mL, LDPE, 25 mm hole drilled into lid and secured with 200 μm mesh), and transferred to a clean tank supplied with filtered sea water and held there for 24 h. Lice which had detached from fish were kept separate from those that had not detached.
On the day of exposure, 200 mg of the test ectoparasite treatments was added to 1 L of sea water. Only 192 mg of nitenpyram was supplied. The solution was mechanically stirred for 30 minutes, using a stirring plate and magnetic flea (VWR), at a speed sufficient to generate a strong vortex to ensure a homogenous solution. This was then transferred into an approx. 25 L clear plastic tank containing 9 L of sea water. The solution was then mixed for a further 10 minutes using a small pump (Fluval Sea CP1), which was then removed from the tank prior to addition of fish.
Each treatment requiring 1 to 4 fish per individual treatment per replicate and 2 to 13 fish per group per replicate. Treatments with negative control (sea water), dinotefuran, clothianidin and thiamethoxam were replicated twice, and for imidacloprid three times. There was only one replicate per treatment for nitenpyram. The mean number of lice used per individual treatment was 5.5 to 10, with the mean per group being 6.2-7.2 lice.

In experiment [3] the test system is azamethiphos- and deltamethrin-resistant sea lice. The experiment can be described thus: In vitro bath exposure of isolated sea lice (Example 6). To be noted: 60 minutes exposure; for % effect: registered approx. 20 h after end of exposure. The procedure:
A trial was performed to ensure there was no cross-resistance between azamethiphos- and deltamethrin-resistant sea lice and neonicotinoids. Both pre-adult and adult stages (mobile stages) of both sexes were used, and they were equally distributed among groups. The sea lice were exposed to imidacloprid for 60 minutes, azamethiphos for 60 minutes and deltamethrin for 30 minutes in one litre baths at a range of concentrations (Tables 6, 7 and 8). The sea lice were transferred to clean aerated seawater after treatment. The temperature of the seawater during the experiment was 12° C., but during exposure the temperature raised to approx. 14° C. in regimes exposed for 60 min. (imidacloprid and azamethiphos) and to 13° C. for the regime exposed in 30 minutes (deltamethrin).
The numbers of live and immobilised (including killed) lice in each regime were registered approximately 20 h after end of exposure. Each louse was individually investigated.

[4] abbreviates: exposure 15 min, * only one louse knocked down.
Setting [5] is: exposure 30 min, * only one louse knocked down.
The mark [6] stands for this setting: exposure 60 min, * only one louse knocked down.

With `O=[N+]([O-])NC1=NCCN1Cc1ccc(Cl)nc1` [imidacloprid], the “Overall lice abundances compared with the DMSO control” value in the experiment on Lepeophtheirus salmonis [1] (10, 30 or 50 ppm w/v, treated one week post challenge) is “No significant differences”. The “Time after addition at which no fish were visibly infected with lice” value in the experiment on Lepeophtheirus salmonis [1] (30 ppm w/v, treated 6 weeks post challenge) worked out at 59 min. For the same molecule, the “Lesions associated with feeding and attachment of lice” value in the experiment with Lepeophtheirus salmonis [1] (30 ppm w/v, two days post-treatment) was “almost completely resolved”; with Lepeophtheirus salmonis [1] (50 ppm w/v, two days post treatment) it was “almost completely resolved”. For the same molecule, the “Time after addition at which no lice were visible on the fish” value in the experiment on Lepeophtheirus salmonis [1] (50 ppm w/v, treated 6 weeks post challenge) turned out to be 81 min. Moreover, the “percentage of sea lice that dropped from treated fish at the end of the treatment period” value in the experiment with Lepeophtheirus salmonis [2] (exposure 5 min) came to 0%; in the experiment on Lepeophtheirus salmonis [2] (exposure 10 min), 20.0%; in the experiment with Lepeophtheirus salmonis [2] (exposure 15 min), 42.9%; in the experiment with Lepeophtheirus salmonis [2] (exposure 30 min), 41.2%; in the experiment with Lepeophtheirus salmonis [2] (exposure 60 min) it was 92.9%. Besides, the “knockdown times (mean±SEM)” value with Lepeophtheirus salmonis [2] (exposure 10 min) is 481 ± 60 s; in the experiment with Lepeophtheirus salmonis [2] (setting [4]), 586 ± 114 s; in the experiment with Lepeophtheirus salmonis [2] (setting [5]) it was 1029 ± 165 s; in the experiment on Lepeophtheirus salmonis [2] (setting [6]) it was 1209 ± 235 s. For the same molecule, the “percentage of lice for which their knockdown time equalled that of the exposure time” value is given as 33.3% in the experiment on Lepeophtheirus salmonis [2] (exposure 10 min), 28.6% in the experiment on Lepeophtheirus salmonis [2] (setting [4]), 11.1% in the experiment on Lepeophtheirus salmonis [2] (setting [5]) and 7.7% in the experiment with Lepeophtheirus salmonis [2] (setting [6]). The “% effect” value is 30% in experiment [3] (5 ppm); 40% and 50% in experiment [3] (10 ppm); 100% in experiment [3] (15 ppm); 100% in experiment [3] (20 ppm); 100% in experiment [3] (30 ppm). The “estimated EC50 value” in experiment [3] (immobilisation approx. 20 h after exposure) is recorded as 7.6 ppm.
